Experimental findings from PubChem BioAssay (NCI) are described below.

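Five concentrations, 48 hours, 96-well plates. GI50 marks 50% less growth. TGI: concentration producing complete growth inhibition.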

What all share (experiment): NCI anticancer screen, dose series, 48 h
The subject of test [1] is UACC-62 melanoma.
Test [2] deals with K-562 leukemia.
Test [3] deals with A549 NSCLC.
The subject of test [4] is NCI-H522 lung.
In test [5] the test system is KM12 colon.
For test [6], the system named is CAKI-1 renal.
The subject of test [7] is HCC-2998 colon.
The test system of test [8] is SW-620 colon.
The subject of test [9] is RPMI-8226 leukemia.
Test [10] concerns DU-145 prostate.

Turning to `CN(C)c1ccc2c(NCCCCCCNc3ccnc4cc(N(C)C)ccc34)ccnc2c1`, the TGI in test [1] was above 100 µM; in test [2], above 100 µM; in test [3], above 100 µM; in test [4], 25.2 µM; in test [5] it was above 100 µM; in test [6], above 100 µM. Besides, the TGI in test [7] is 70.7 µM; in test [8], above 100 µM.
As for `Cc1ccc(C(=O)Nc2ccc(S(=O)(=O)O)c3cc(S(=O)(=O)O)cc(S(=O)(=O)O)c23)cc1NC(=O)c1cccc(N)c1`, the TGI in test [1], in test [2], in test [3], in [4], in test [5] and in test [6] was above 100 µM throughout. For the same molecule, the TGI in test [7] and in test [8] was above 100 µM throughout.
For the molecule `CC12CCC(=O)C(O1)C1C(=O)c3cc4ccccc4cc3C(=O)C12` (stereo unspecified), the GI50 is 16 µM in [2]; 32.4 µM in [3]; 21.9 µM in test [4]; 12.5 µM in test [5]; 4.94 µM in test [6]. Besides, the TGI in test [2] was 41.5 µM; in [3], above 100 µM; in test [4], 52.3 µM; in test [5], 29.5 µM; in test [6], 25.6 µM.
In the case of `CC1=C2CCCC2C/C(=N/Nc2ccc([N+](=O)[O-])cc2[N+](=O)[O-])CC1` (stereo unspecified), the TGI in test [1], in test [2], in test [3], in [9], in [4] and in test [5] was above 100 µM each time. Also, the TGI in test [6], in test [7] and in test [8] was above 100 µM throughout.
As for `CCOP(=O)(OCC)C1CCCCOC1=O` (stereo unspecified), the TGI in test [1], in [2], in [3], in test [9], in test [5] and in test [6] was above 100 µM throughout. Further, the TGI in [7] and in test [8] was above 100 µM in each case.
As for `Nc1cc(=O)[nH]c(SC2=NC(N)CC(O)C2)n1` (stereo unspecified), the TGI in test [1], in test [2], in test [9], in [4], in test [5] and in test [6] was above 100 µM throughout. The TGI in [7] and in [8] was above 100 µM in each case.
On to `Cc1ccc2c(c1)C1(C)OC(CC(N)C1O)O2` (stereo unspecified), for which the TGI in [1], in [2], in test [3], in [9], in test [4] and in [5] was above 100 µM in each case. Further, the TGI in test [8] was above 100 µM.
For the molecule `CCCC(O)[C@@H](O)c1ccc2c(c1O)C(=O)c1c(OC)cccc1C2=O` (stereo partly specified), the TGI was 61.8 µM in [1]; above 100 µM in test [2]; above 100 µM in test [3]; 38.2 µM in test [9]; 42.1 µM in test [4]; above 100 µM in [5]. The TGI is above 100 µM in [6], 68.1 µM in test [7] and above 100 µM in [8].
In the case of `CC1(Sc2ccccc2)CN(Cc2ccccc2)C1=O` (stereo unspecified), the TGI in test [1], in test [2], in [3], in test [9], in test [4] and in test [5] was above 100 µM each time. Besides, the TGI in test [7] and in test [8] was above 100 µM each time.
Regarding `COC(=O)CCC(=O)N1Cc2cc(C)ccc2N(C(=O)CCC(=O)OC)Cc2cc(C)ccc21`, the TGI in test [1], in test [2], in test [3], in test [9], in [4] and in test [5] was above 100 µM each time. Also, the TGI in test [6] and in test [8] was above 100 µM throughout.
As to `O=C(NCCCCCCNC(=O)c1cccc2ccccc12)c1cccc2ccccc12`, the TGI in [1], in test [2], in [3], in [9], in test [4] and in test [5] was above 100 µM throughout. The TGI in [6] is 66.3 µM; in [8] it was above 100 µM.
Take `CCOC(=O)C=C1CCN(C(=O)c2ccccc2)CC1`: the TGI in test [1], in [2], in test [3], in test [9], in test [5] and in test [7] was above 100 µM in each case. This molecule yielded a TGI in [8] above 100 µM.
For the molecule `NC(=O)OCC(COc1ccc(Cl)cc1)OC(=O)c1ccccc1Cl` (stereo unspecified), the TGI in test [1] was found to be 31.4 µM; in test [2] it was 39.4 µM; in [3] it was 75.8 µM; in test [9], 51.6 µM; in test [4], 31.9 µM; in [5] it was 45.5 µM. For the same molecule, the values for the TGI in test [6], in [7] and in test [8] were 74.8 µM, 43.5 µM and 36.4 µM, respectively.
As to `COC(=O)[C@@H]1CSC(=S)N1C(=O)C[C@H]1CC=CC[C@H]1CC(=O)Sc1ccccc1`, the TGI is 38.3 µM in [1]; 38.9 µM in test [2]; 40.1 µM in test [3]; 61.7 µM in [9]; 18.2 µM in [4]; 34.1 µM in [5]. Moreover, the TGI in test [7] was 33.4 µM; in [8], 33.9 µM.
As for `CN1CCc2c1nc(-c1ccccc1)c1c2N(C)CC1`, the TGI in test [1], in test [2], in [3], in test [9], in [5] and in test [6] was above 100 µM each time. For the same molecule, the TGI in test [7] and in test [8] was above 100 µM in each case.
As to `NCC1(N2CCOCC2)C2CCCC21CO` (stereo unspecified), the TGI in test [2], in test [3], in test [9], in test [4], in test [5] and in test [6] was above 100 µM in each case. Further, the TGI in [7] and in test [8] was above 100 µM each time.
Regarding `CS(=O)(=O)CC1=Nc2nnc(CCCCCCCc3nnc4n3C(=O)C(CS(C)(=O)=O)=N4)n2C1=O`, the TGI in test [1], in test [2], in [3], in test [9], in test [4] and in test [5] was above 100 µM throughout. Further, the TGI in test [6], in test [7] and in [8] was above 100 µM in each case.
Take `CC(=O)[O][Pb]([O]C(C)=O)([c]1ccccc1)[c]1ccccc1`: the GI50 is 3.88 µM in test [1]; above 25.9 µM in test [2]; above 100 µM in [3]; 4.12 µM in [9]; 0.657 µM in [4]; 12.6 µM in test [5]. Further, the GI50 in [6] was 13.7 µM; in [7], 44.9 µM; in test [8], 5.42 µM. Also, the TGI in test [1] was 31.1 µM; in [2], above 100 µM; in test [3], above 100 µM; in test [9], above 100 µM; in [4], 7.46 µM; in test [5] it was above 100 µM. Moreover, the TGI in test [6], in [7] and in [8] was above 100 µM in each case.
Consider `COC12C=CC(CC1)c1c(O)ccc(O)c12` (stereo unspecified), for which the TGI in test [1] is above 100 µM; in test [2] it was 61.8 µM; in test [3], above 100 µM; in [9], above 100 µM; in [4] it was 35.1 µM; in test [5] it was above 100 µM. The figures for the TGI in test [6], in test [7] and in test [8] were above 100 µM, above 100 µM and above 63.8 µM, respectively.
Regarding `CC1(C)CCC2(C(=O)OC3OC(CO)C(O)C(O)C3O)CC[C@]3(C)C(=CCC4C5(C)CC[C@H](OC6OC(C(=O)O)C(O)C(O)C6O)C(C)(C)C5CCC43C)C2C1` (stereo partly specified), the GI50 in test [1] is 0.887 µM; in test [2], 1.58 µM; in test [3], 1.83 µM; in test [9], 0.776 µM; in [4], 1.72 µM; in test [5], 2.08 µM. Besides, the GI50 is 17.2 µM in test [6], 0.89 µM in [7] and 1.93 µM in [8]. Besides, the TGI was 1.92 µM in test [1]; above 50 µM in test [2]; 20.2 µM in test [3]; 10.2 µM in test [9]; 9.71 µM in test [4]; 9.47 µM in [5]. The TGI in test [6] is above 50 µM; in [7] it was 1.64 µM; in [8], 8.87 µM.
Consider `COC(=O)c1[nH]c(=S)[nH]c(=O)c1-c1ccc(Cl)cc1`, for which the TGI in test [1], in test [2], in test [3], in test [9], in test [4] and in [5] was above 50 µM throughout. The TGI in test [6], in [7] and in test [8] was above 50 µM each time.
With `O=C(CCn1[nH]c(=O)c(Cl)c(Cl)c1=O)NOCCCc1ccccc1`, the TGI in test [1], in [2], in [3], in test [9], in test [5] and in test [6] was above 100 µM in each case. Besides, the TGI in test [7] and in [8] was above 100 µM throughout.
Regarding `COc1ccccc1[N-]C(C1=C([O-])c2ccccc2C1=O)c1ccccc1.COc1ccccc1[N-]C(C1=C([O-])c2ccccc2C1=O)c1ccccc1.[Cu+2]` (stereo unspecified), the GI50 in [1] was 6.66 µM; in [2], 3.18 µM; in test [3], 4.63 µM; in [9], 3.9 µM; in [5], 5.76 µM; in [6] it was 12.7 µM. Moreover, the GI50 in [8] was 6.08 µM. In addition, the TGI in test [1] is 42.4 µM; in test [2], above 100 µM; in [3], 52.9 µM; in test [9] it was above 100 µM; in test [5], 43.1 µM; in test [6] it was 54.5 µM. Also, the TGI in test [8] is above 100 µM.
In the case of `O=C(CC1Sc2ccccc2NC1=O)Nc1cc(Cl)ccc1Cl` (stereo unspecified), the TGI in test [1], in test [2], in test [3], in test [9], in test [6] and in test [7] was above 100 µM throughout. In test [8], the TGI is above 100 µM.
For the molecule `CC(=O)/C(=C\c1ccco1)C(=O)Nc1ccccc1`, the TGI in test [1], in test [2], in test [3], in test [9], in [4] and in test [5] was above 100 µM each time. The TGI in test [6], in [7] and in test [8] was above 100 µM each time.
`O=C1C(Cl)=C(N/N=c2/[nH][nH]/c(=N/NC3=C(Cl)C(=O)c4ccccc4C3=O)c3ccccc23)C(=O)c2ccccc21`: the GI50 was 3.23 µM in test [2]; 21.9 µM in test [3]; 17.8 µM in test [10]; 10.1 µM in [9]; 2.78 µM in test [4]; 5.16 µM in test [5]. In addition, the GI50 in [6] was 17.7 µM; in [8] it was 16.6 µM. The TGI came to 13.9 µM in test [2]; 52.2 µM in test [3]; 33.6 µM in [10]; 44.1 µM in test [9]; 10.9 µM in test [4]; 20.7 µM in test [5]. Moreover, the TGI in [6] came to 41.4 µM; in test [8], 43.3 µM.
Regarding `CN(C)CCCNC(=O)c1cc(NC(=O)CCNS(=O)(=O)c2ccc3c(c2)C(=O)c2ccccc2C3=O)cn1C`, the GI50 in [1], in [2], in [3], in [9], in test [4] and in [5] was above 100 µM throughout. Besides, the GI50 in test [6], in [7] and in [8] was above 100 µM throughout. For the same molecule, the TGI in test [1], in test [2], in [3], in test [9], in test [4] and in [5] was above 100 µM each time. Moreover, the TGI in [6], in test [7] and in test [8] was above 100 µM in each case.
